Patent publication US11318137B2, “Quinazoline compounds as modulators of Ras signaling” (VANDERBILT UNIVERSITY, priority 2017, dated 2022)

Experiments:
[1] = system: H727 lung cancer cell lines, which contain a G12V K-Ras mutation; assay: Inhibition of cancer cell proliferation (CellTiter-Glo, 3 days); assay type: cell-based; details: Homo sapiens, NCI-H727, 72 h, H727 cells, 3 days at 37° C., normalized to DMSO control, read-out: Cell proliferation activity (H727 cancer cell line proliferation IC50)
Protocol: C. Inhibition of Cancer Cell Proliferation
Compounds of the present invention were measured for their ability to kill H727 lung cancer cell lines, which contain a G12V K-Ras mutation. Cell proliferation experiments were conducted in 96-well plates. Cells were plated at 1000 cells/well, incubated overnight, followed by treatment with a dose range of compound for 3 days at 37° C. Cell proliferation was assessed using a CellTiter-Glo assay (Promega) according to the manufacturer's protocol. Data were normalized to DMSO control. IC50 values were determined using a four-parameter dose-response (variable slope) equation. These assays are performed in a manner analogous to the assay disclosed in: Burns, M. C.; Sun, Q.; Daniels, R. N.; Camper, D. V.; Kennedy, J. P.; Phan, J.; Olejniczak, E. O.; Lee, T.; Waterson, A. G.; Rossanese, O. W.; Fesik, S. W. “Approach for targeting Ras with small molecules that activate SOS-mediated nucleotide exchange” Proc. Natl. Acad. Sci. 2014; 11(9): 3401-3406. PMCID: PMC3948241.

[2] = target: T1, SOS-mediated nucleotide exchange on Ras (Homo sapiens, UniProt Q07889); assay: SOS-mediated nucleotide exchange on Ras (BODIPY-GDP fluorescence); assay type: biochemical; details: Ras loaded with BODIPY-GDP, GTP and SOS added; EC50 from derived exchange rates
T1 sequence (Q07889 1-1333): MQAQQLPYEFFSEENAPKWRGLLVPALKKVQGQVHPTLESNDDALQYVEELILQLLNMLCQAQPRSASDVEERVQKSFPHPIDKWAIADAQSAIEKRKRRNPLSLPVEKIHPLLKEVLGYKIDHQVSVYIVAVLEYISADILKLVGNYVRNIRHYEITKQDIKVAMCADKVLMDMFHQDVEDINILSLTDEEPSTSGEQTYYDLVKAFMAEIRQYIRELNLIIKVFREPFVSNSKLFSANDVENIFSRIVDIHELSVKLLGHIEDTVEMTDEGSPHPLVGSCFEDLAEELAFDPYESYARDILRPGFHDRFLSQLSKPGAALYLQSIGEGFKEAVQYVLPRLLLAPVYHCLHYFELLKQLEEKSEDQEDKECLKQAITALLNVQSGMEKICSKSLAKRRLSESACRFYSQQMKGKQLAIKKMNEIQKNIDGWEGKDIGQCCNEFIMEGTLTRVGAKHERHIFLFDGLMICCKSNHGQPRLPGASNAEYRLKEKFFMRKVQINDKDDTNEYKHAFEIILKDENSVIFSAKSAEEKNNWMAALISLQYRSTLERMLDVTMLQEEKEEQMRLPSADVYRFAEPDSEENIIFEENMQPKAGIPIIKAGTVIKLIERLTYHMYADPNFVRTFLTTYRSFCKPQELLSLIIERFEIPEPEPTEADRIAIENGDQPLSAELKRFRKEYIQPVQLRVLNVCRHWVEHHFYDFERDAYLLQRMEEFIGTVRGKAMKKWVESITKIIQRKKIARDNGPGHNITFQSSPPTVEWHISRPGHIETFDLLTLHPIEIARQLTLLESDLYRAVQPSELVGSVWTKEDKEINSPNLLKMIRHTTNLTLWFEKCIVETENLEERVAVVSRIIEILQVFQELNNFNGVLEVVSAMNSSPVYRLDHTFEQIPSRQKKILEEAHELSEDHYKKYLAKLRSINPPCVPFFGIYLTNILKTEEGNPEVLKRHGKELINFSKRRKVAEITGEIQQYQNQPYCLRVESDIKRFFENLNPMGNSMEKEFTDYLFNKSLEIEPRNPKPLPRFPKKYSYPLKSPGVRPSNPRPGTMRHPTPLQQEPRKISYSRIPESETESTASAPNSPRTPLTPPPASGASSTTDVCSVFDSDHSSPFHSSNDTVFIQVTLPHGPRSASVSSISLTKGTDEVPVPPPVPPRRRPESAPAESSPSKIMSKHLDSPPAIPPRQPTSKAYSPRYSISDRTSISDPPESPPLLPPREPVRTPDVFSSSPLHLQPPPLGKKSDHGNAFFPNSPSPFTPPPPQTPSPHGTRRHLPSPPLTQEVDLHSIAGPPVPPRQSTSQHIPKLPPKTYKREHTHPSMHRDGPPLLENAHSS
Method in brief: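 Compound, then GTP and SOS, were added to buffered Ras preloaded with BODIPY-GDP, and the fluorescence change from labeled GDP being exchanged for GTP was followed over time. Rates came from single-exponential fits, and EC50 from a four-parameter fit of mean rate against compound concentration.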

Son of Sevenless (SOS) = target: T2, Son of Sevenless (SOS) (Homo sapiens, UniProt Q07889); assay: Binding to SOS, fluorescence polarization anisotropy (FPA) displacement of FITC-conjugated probe; details: binding affinity calculated from IC50 of FITC-probe displacement, read-out: Binding affinities (binding affinity to SOS)
T2 sequence (Q07889 564-1049 limits assumed): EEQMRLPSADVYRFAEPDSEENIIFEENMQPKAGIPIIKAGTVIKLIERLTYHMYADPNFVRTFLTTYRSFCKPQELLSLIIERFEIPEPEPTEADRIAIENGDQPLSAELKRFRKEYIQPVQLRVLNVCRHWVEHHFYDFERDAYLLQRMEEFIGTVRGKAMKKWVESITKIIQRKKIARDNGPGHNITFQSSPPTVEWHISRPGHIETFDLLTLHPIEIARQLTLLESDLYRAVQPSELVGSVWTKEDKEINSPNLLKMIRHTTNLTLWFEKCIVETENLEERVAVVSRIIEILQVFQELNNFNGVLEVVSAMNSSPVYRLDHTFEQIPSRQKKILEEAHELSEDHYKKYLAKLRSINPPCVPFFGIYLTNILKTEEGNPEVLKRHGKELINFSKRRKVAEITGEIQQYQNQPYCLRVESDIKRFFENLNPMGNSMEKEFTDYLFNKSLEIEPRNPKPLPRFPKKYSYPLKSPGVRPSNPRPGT
Method in brief: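 FITC-labelled probe incubated with SOS in buffer; displacement by test compound across a dose range read as fluorescence anisotropy change. IC50 from four-parameter variable-slope fit, binding affinity calculated from IC50.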

Compound | IC50 [1] | EC50 [2] | Ki (Son of Sevenless (SOS))
C[C@@H](Nc1nc(Nc2ccc(F)c(Cl)c2)nc2ccccc12)C1CC1 [Example 1, (R)—N^2-(3-chloro-4-fluorophenyl)-N^4-(1-cyclopropylethyl)quinazoline-2,4-diamine] | 1 to 5 µM | 5 to 30 µM | –
C[C@@H](Nc1nc(NCC2CCCCCC2)nc2ccccc12)C1CC1 [Example 5, (R)—N^2-(cycloheptylmethyl)-N^4-(1-cyclopropylethyl)quinazoline-2,4-diamine] | 1 to 5 µM | 5 to 30 µM | > 5 µM
Fc1cc(F)cc(Nc2nc(NCc3ncc[nH]3)c3ccccc3n2)c1 [Example 22, N^4-((1H-imidazol-2-yl)methyl)-N^2-(3,5-difluorophenyl)quinazoline-2,4-diamine] | > 20 µM | > 30 µM | > 5 µM
CC[C@@H](Nc1nc(Nc2ccc(F)c(Cl)c2)nc2ccccc12)c1cccs1 [Example 39, (R)—N^2-(3-chloro-4-fluorophenyl)-N^4-(1-(thiophen-2-yl)propyl)quinazoline-2,4-diamine] | 5 to 20 µM | 1 to 5 µM | > 5 µM
CC[C@@H](Nc1nc(Nc2ccc(F)c(Cl)c2)nc2c(CCN)cccc12)C1CC1 [Example 50, (R)-8-(2-aminoethyl)-N^2-(3-chloro-4-fluorophenyl)-N^4-(1-cyclopropylpropyl)quinazoline-2,4-diamine] | 1 to 5 µM | 1 to 5 µM | –
CC[C@@H](Nc1nc(Nc2ccc(F)c(Cl)c2)nc2c(C3=CCNCC3)cccc12)C1CC1 [Example 51, (R)—N^2-(3-chloro-4-fluorophenyl)-N^4-(1-cyclopropylpropyl)-8-(1,2,3,6-tetrahydropyridin-4-yl)quinazoline-2,4-diamine] | < 1 µM | 1 to 5 µM | < 1 µM
C[C@@H](Nc1nc(Nc2ccc(F)c(Cl)c2)nc2c(C(=N)N)cccc12)C1CC1 [Example 57, (R)-2-((3-chloro-4-fluorophenyl)amino)-4-((1-cyclopropylethyl)amino)quinazoline-8-carboximidamide] | 1 to 5 µM | 1 to 5 µM | > 5 µM
CNCc1cccc2c(N[C@H](C)C3CC3)nc(Nc3ccc(F)c(Cl)c3)nc12 [Example 58, (R)—N^2-(3-chloro-4-fluorophenyl)-N^4-(1-cyclopropylethyl)-8-((methylamino)methyl)quinazoline-2,4-diamine] | 1 to 5 µM | 5 to 30 µM | > 5 µM
C[C@@H](Nc1nc(Nc2ccc(F)c(Cl)c2)nc2c(CNC(=N)N)cccc12)C1CC1 [Example 59, (R)-1-((2-((3-chloro-4-fluorophenyl)amino)-4-((1-cyclopropylethyl)amino)quinazolin-8-yl)methyl)guanidine] | 5 to 20 µM | 5 to 30 µM | > 5 µM
CC[C@@H](Nc1nc(Nc2ccc(F)c(Cl)c2)nc2c(N3CCNCC3)cccc12)C1CC1 [Example 64, (R)—N^2-(3-chloro-4-fluorophenyl)-N^4-(1-cyclopropylpropyl)-8-(piperazin-1-yl)quinazoline-2,4-diamine] | < 1 µM | 1 to 5 µM | 1 to 5 µM
CC[C@@H](Nc1nc(Nc2ccc(F)c(Cl)c2)nc2c(CN)cccc12)C1CC1 [Example 68, (R)-8-(aminomethyl)-N^2-(3-chloro-4-fluorophenyl)-N^4-(1-cyclopropylpropyl)quinazoline-2,4-diamine] | 1 to 5 µM | 1 to 5 µM | > 5 µM
C[C@@H](Nc1nc(Oc2ccc(F)c(Cl)c2)nc2c(C3=CCNCC3)cccc12)C1CC1 [Example 69, (R)-2-(3-chloro-4-fluorophenoxy)-N-(1-cyclopropylethyl)-8-(1,2,3,6-tetrahydropyridin-4-yl)quinazolin-4-amine] | 1 to 5 µM | > 30 µM | > 5 µM
C[C@@H](Nc1nc(Nc2cc[nH]n2)nc2c(C3=CCNCC3)cccc12)C1CC1 [Example 70, (R)—N^4-(1-cyclopropylethyl)-N^2-(1H-pyrazol-3-yl)-8-(1,2,3,6-tetrahydropyridin-4-yl)quinazoline-2,4-diamine] | 5 to 20 µM | > 30 µM | > 5 µM
C[C@@H](Nc1nc(Nc2ccn(C)n2)nc2c(C3=CCNCC3)cccc12)C1CC1 [Example 71, (R)—N^4-(1-cyclopropylethyl)-N^2-(1-methyl-1H-pyrazol-3-yl)-8-(1,2,3,6-tetrahydropyridin-4-yl)quinazoline-2,4-diamine] | 1 to 5 µM | 5 to 30 µM | > 5 µM
C[C@@H](Nc1nc(NCc2ncco2)nc2c(C3=CCNCC3)cccc12)C1CC1 [Example 72, (R)—N^4-(1-cyclopropylethyl)-N^2-(oxazol-2-ylmethyl)-8-(1,2,3,6-tetrahydropyridin-4-yl)quinazoline-2,4-diamine] | 5 to 20 µM | 5 to 30 µM | > 5 µM
C1=C(c2cccc3c(NC(C4CC4)C4CC4)nc(NCC4CCCCC4)nc23)CCNC1 [Example 73, N^2-(cyclohexylmethyl)-N^4-(dicyclopropylmethyl)-8-(1,2,3,6-tetrahydropyridin-4-yl)quinazoline-2,4-diamine] | < 1 µM | 1 to 5 µM | 1 to 5 µM
CC[C@@H](Nc1nc(Nc2ccc(F)c(Cl)c2)nc2c(C3=CCNCC3)cccc12)c1cccs1 [Example 100, (R)—N^2-(3-chloro-4-fluorophenyl)-8-(1,2,3,6-tetrahydropyridin-4-yl)-N^4-(1-(thiophen-2-yl)propyl)quinazoline-2,4-diamine] | < 1 µM | 5 to 30 µM | –
C[C@@H](Nc1nc(Nc2cc(F)cc(F)c2)nc2ccc(CCN)cc12)C1CC1 [Example 109, (R)-6-(2-aminoethyl)-N^4-(1-cyclopropylethyl)-N^2-(3,5-difluorophenyl)quinazoline-2,4-diamine] | < 1 µM | 1 to 5 µM | –
C[C@@H](Nc1nc(Cc2cc(F)cc(F)c2)nc2ccccc12)C1CC1 [Example 110, (R)—N-(1-cyclopropylethyl)-2-(3,5-difluorobenzyl)quinazolin-4-amine] | 5 to 20 µM | 5 to 30 µM | –
